Results: ChEMBL document CHEMBL1151759 (J Med Chem, 2008)

Tests used:
[1] = molecular target: T1, Neuropeptide Y receptor type 1 (Homo sapiens, UniProt P25929); experiment: Displacement of [3H]propionyl-pNPY from neuropeptide Y1 receptor in human SK-N-MC cells; type: cell-based
T1 sequence (P25929 whole entry): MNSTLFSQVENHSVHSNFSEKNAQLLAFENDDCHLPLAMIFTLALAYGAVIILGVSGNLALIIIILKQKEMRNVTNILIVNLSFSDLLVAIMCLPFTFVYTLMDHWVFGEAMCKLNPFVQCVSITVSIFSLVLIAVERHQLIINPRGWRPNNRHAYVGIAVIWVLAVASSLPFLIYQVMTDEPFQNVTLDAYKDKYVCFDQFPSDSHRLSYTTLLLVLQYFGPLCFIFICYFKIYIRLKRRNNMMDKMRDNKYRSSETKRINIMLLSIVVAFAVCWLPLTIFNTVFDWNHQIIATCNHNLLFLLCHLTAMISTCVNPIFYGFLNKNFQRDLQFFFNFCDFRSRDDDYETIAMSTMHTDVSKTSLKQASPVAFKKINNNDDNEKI

[2] = molecular target: T1, Neuropeptide Y receptor type 1; experiment: Binding affinity to neuropeptide Y1 receptor in human SK-N-MC cells; type: cell-based
[3] = molecular target: T1, Neuropeptide Y receptor type 1; experiment: Binding affinity to neuropeptide Y1 receptor in human MCF7 cells; type: cell-based
[4] = Chemical stability of compound assessed as half life; type: physicochemical
[5] = molecular target: T1, Neuropeptide Y receptor type 1; experiment: Binding affinity to neuropeptide Y1 receptor in human MCF7 cells by kinetic experiment; type: cell-based
[6] = molecular target: T1, Neuropeptide Y receptor type 1; experiment: Binding affinity to neuropeptide Y1 receptor in human SK-N-MC cells by kinetic experiment; type: cell-based
[7] = molecular target: T1, Neuropeptide Y receptor type 1; experiment: Displacement of [3H]UR-MK114 from neuropeptide Y1 receptor in human SK-N-MC cells; type: cell-based
[8] = molecular target: T2, Neuropeptide Y receptor type 5 (Homo sapiens, UniProt Q15761); experiment: Displacement of Dy-635-pNPY from human neuropeptide Y5 receptor expressed in HEC-1B cells by flow cytometric assay; type: cell-based
T2 sequence (Q15761 whole entry): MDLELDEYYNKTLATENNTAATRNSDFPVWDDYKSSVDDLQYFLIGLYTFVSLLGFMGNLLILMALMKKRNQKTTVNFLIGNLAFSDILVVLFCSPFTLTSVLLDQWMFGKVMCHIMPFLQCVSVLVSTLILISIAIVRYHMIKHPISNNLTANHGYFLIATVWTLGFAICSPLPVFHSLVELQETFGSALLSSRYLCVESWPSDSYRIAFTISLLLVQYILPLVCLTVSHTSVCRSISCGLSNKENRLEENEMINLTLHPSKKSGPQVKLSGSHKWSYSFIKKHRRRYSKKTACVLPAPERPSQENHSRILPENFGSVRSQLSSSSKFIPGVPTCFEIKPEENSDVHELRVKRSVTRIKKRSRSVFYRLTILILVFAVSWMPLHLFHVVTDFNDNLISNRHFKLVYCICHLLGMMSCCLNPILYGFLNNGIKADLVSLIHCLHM

[9] = molecular target: T3, Neuropeptide Y receptor type 1 (Homo sapiens) (UniProt P25929)
T3 sequence (whole entry): T1 sequence (P25929 whole entry)

[10] = molecular target: Neuropeptide Y receptor type 4 (Homo sapiens, UniProt P50391); experiment: Displacement of Cy5-[K4]-hPP from human neuropeptide Y4 receptor expressed in CHO cells coexpressing Galphaqi5 and aequorin by flow cytometric assay; type: cell-based
Sequence of Neuropeptide Y receptor type 4 (P50391 whole entry): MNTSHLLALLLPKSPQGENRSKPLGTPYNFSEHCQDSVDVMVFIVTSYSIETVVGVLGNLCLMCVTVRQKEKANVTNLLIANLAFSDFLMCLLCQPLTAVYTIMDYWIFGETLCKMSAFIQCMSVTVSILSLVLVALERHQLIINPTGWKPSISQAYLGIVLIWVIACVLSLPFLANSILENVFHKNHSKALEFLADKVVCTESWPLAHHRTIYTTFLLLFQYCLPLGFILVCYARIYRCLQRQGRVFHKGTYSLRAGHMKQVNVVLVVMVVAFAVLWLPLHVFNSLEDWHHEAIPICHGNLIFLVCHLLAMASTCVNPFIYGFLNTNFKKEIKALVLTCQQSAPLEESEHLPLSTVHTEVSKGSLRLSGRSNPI

[11] = molecular target: T4, Neuropeptide Y receptor type 2 (Homo sapiens, UniProt P49146); experiment: Displacement of Dy-635-pNPY from human neuropeptide Y2 receptor expressed in CHO cells coexpressing Galphaqi5 and aequorin by flow cytometric assay; type: cell-based
T4 sequence (P49146 whole entry): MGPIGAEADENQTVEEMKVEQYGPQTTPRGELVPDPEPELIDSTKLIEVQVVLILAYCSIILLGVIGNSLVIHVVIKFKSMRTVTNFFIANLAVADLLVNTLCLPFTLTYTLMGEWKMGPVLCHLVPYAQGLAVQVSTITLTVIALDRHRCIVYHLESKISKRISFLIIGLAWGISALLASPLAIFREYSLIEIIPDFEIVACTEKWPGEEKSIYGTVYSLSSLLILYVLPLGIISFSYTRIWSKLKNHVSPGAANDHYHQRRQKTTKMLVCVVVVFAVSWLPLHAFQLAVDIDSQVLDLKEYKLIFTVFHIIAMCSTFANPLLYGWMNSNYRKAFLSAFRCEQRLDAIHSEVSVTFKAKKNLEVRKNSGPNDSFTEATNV

Question: Which Ki [1] does the source give for `CCC/N=C(/N)NCCC[C@@H](NC(=O)C(c1ccccc1)c1ccccc1)C(=O)NCc1ccc(O)cc1` here?
Answer: Its Ki is 27 nM.

Question: Which Ki [1] does the source give for `COC(=O)NC(N)=NCCC[C@@H](NC(=O)C(c1ccccc1)c1ccccc1)C(=O)NCc1ccc(O)cc1` here?
Answer: The Ki was 33 nM.

Question: Which results are given for `[3H]CC([3H])C(=O)/N=C(/N)NCCC[C@@H](NC(=O)C(c1ccccc1)c1ccccc1)C(=O)NCc1ccc(O)cc1` (some centres undefined)?
Answer: Kd [2]: 1.2 nM; Kd [3]: 2.9 nM; half-life [4]: 2.2 min; Kd [5]: 1.1 nM; Kd [6]: 1.1 nM

Question: Which Ki [7] does the source give for `CCNC(=O)/N=C(/N)NCCC[C@@H](NC(=O)C(c1ccccc1)c1ccccc1)C(=O)NCc1ccc(O)cc1` here?
Answer: The Ki was 0.1 nM.

Question: For `CCOC(=O)CNC(=O)/N=C(/N)NCCC[C@@H](NC(=O)C(c1ccccc1)c1ccccc1)C(=O)NCc1ccc(O)cc1`, which Ki [7] is on record?
Answer: Its Ki is 0.1 nM.

Question: Which Ki [1] does the source give for `CC(=O)/N=C(/N)NCCC[C@@H](NC(=O)C(c1ccccc1)c1ccccc1)C(=O)NCc1ccc(O)cc1` here?
Answer: Its Ki is 12 nM.

Question: With `CCOC(=O)NC(N)=NCCC[C@@H](NC(=O)C(c1ccccc1)c1ccccc1)C(=O)NCc1ccc(O)cc1` as the molecule, how does the Ki [1] read?
Answer: The Ki was 4.5 nM.

Question: Which Ki [8] does the source give for `CCC(=O)/N=C(/N)NCCC[C@@H](NC(=O)C(c1ccccc1)c1ccccc1)C(=O)NCc1ccc(O)cc1` here?
Answer: Its Ki is > 2000 nM.

Question: What about the pKb [9] of the same molecule?
Answer: The pKb was 9.1.

Question: And the IC50 [7]?
Answer: The IC50 was 2.24 nM.

Question: And the Kd [7]?
Answer: Its Kd is 1.2 nM.

Question: What about the Ki [7] of the same molecule?
Answer: Its Ki is 1 nM.

Question: And the Ki [10]?
Answer: Its Ki is > 10000 nM.

Question: And the Ki [11]?
Answer: The Ki was > 10000 nM.

Question: And the Ki [3]?
Answer: Its Ki is 1.2 nM.
